Results: the NIST ThermoML archive (doi:10.1016/j.fluid.2015.04.014)
Numbers after ± are expanded uncertainties.

Conditions: Crystal; visual observation

- Normal melting temperature: 198.00 ± 4 °C
Structure (SMILES): CC1(C)[C@@H]2CC[C@@]1(CS(=O)(=O)O)C(=O)C2 [(1S)-(+)-10-camphorsulfonic acid]
